Measured values as given in US20250170104A1, “INHIBITORS OF PSEUDOMONAS AERUGINOSA VIRULENCE FACTOR Lasß” (priority 2022, published 2025).
pIC50: −log10 of the molar value.

Legend:
[1] = system: A549 cells challenged with P. aeruginosa PAO1 culture supernatant; assay: A549 cell-based assay, LasB-related cytotoxicity (MTT); set-up: species or system human; settings: 10% (v/v) PAO1 csn
Method: The human lung adenocarcinoma cell line (A549) was cultured in Dulbecco's Modified Eagle Medium (DMEM), containing 10% Fetal Bovine Serum (FBS) and 1% penicillin-streptomycin mixture. Cells were maintained according to standard cell culture procedures.
To conduct the assay, 2.5-3.5*10^3 cells/well were seeded into a flat bottom 96-well plate (Corning™ Costar™) and incubated at 37° C.+5% CO2 for 24 hours. On the following day, several concentrations of the compound 169 were tested against 10% (v/v) Pseudomonas aeruginosa PAO1 (DSM 22644, ATCC 15692) culture supernatant diluted in DMEM starting from 1.25 μM. The compound was initially dissolved in 99.9% Dimethyl sulfoxide (DMSO) and a final assay concentration of 0.5% (v/v) was applied to minimize the proteolytic effect of DMSO on the bacterial culture supernatant. In addition, cells were challenged with 10% (v/v) of AlasB PAO1 to confirm the toxic effect derived from LasB, and DMEM was included as a control without any treatment. Plates were incubated at 37° C.+5% CO2 for 24 hours prior to the MTT assay.
The graph represents three independent experiments ±SD. One-way ANOVA statistical analysis was performed following Dunnett's multiple comparisons test, comparing the mean value of each concentration to the mean value of PAO1 without any treatment with compounds (**** p≤0.0001, ** p≤0.01, * p≤0.05).

[2] = target: MMP3 (Homo sapiens (Human), UniProt P08254); assay: Selectivity assay: inhibition of MMPs; assay type: biochemical
Method: (§1) MMPs-1, -2, -3, -7, -8 and -14 along with the SensoLyte 520 Generic MMP Activity Kit*Fluorimetric* were purchased from AnaSpec (Fremont, CA, USA). The assay was performed as described previously (Schönauer E, Kany A M, Haupenthal J, Hüsecken K, Hoppe I J, Voos K, et al. Discovery of a Potent Inhibitor Class with High Selectivity toward Clostridial Collagenases. J Am Chem Soc. 2017 Sep. 13; 139(36):12696-703) using batimastat as a positive control according to the guidelines of the manufacturer.

[3] = target: MMP1 (Homo sapiens (Human), UniProt P03956); assay: Selectivity assay: inhibition of MMPs; assay type: biochemical
Method: as §1

[4] = target: MMP2 (Homo sapiens (Human), UniProt P08253); assay: Selectivity assay: inhibition of MMPs; assay type: biochemical
Method: as §1

[5] = target: purified LasB (Pseudomonas aeruginosa (strain ATCC 15692 / DSM 22644 / CIP 104116 / JCM 14847 / LMG 12228 / 1C / PRS 101 / PAO1), UniProt P14756); assay: Ex vivo lung homogenate assay with purified LasB; assay type: biochemical
Method: The lung homogenate was prepared from pig lung, which was stored at −80° C. After thawing the lung tissue was cut into pieces of approximately 1.5 cm diameter and 0.5 to 1 cm thickness. Subsequently the bits were flash frozen in liquid nitrogen and lyophilized for 48 h.
1.2 g dried tissue was then ball milled using an IKA Tube Drive and the respective 50 mL ball milling tubes. 20 steel balls were used with target rpm of 6000, reversing the spinning direction every 30 seconds for a total of 10 min. After 10 min the tube was detached and inverted to loosen the powder. The ball milling was repeated with the same setup twice again.
To the powdery tissue 50 mL of a 10 mM Tris buffer including 2 mM CaCl2 with a pH of 8.0 was added and the IKA Tube Drive used again with the same settings as described before for 10 min to disperse the tissue powder in the aqueous buffer. The yielded lung homogenate was pipetted into 15 mL falcons and stored at −80° C. until further use.
To perform the LasB activity/inhibition assay a compound dilution was prepared in DMSO yielding a 100 fold concentration of the final concentration in the assay. LasB was diluted from a higher stock solution to a 6 μM stock in the same buffer as used for the lung homogenate. The assay was performed in Eppis. With a stepper pipette 10 μL of the prepared LasB solution was added to the Eppis to yield a final protein concentration of 300 nM. Then 188 μL of thawed lung homogenate was added with a stepper pipette. Finally, 2 μL of the 100 fold compound dilutions were added and mixed by pipetting up and down. The Eppis were incubated at 37° C. with a shaking speed of 1000 rpm for 4 h.
After 4 h, the Eppis were centrifuged at a speed of 14,000 rpm, 4° C. for 10 min to separate the soluble cleaved Elastin fragments from the non-cleaved insoluble part. 100 μL of the obtained supernatant was transferred to new Eppis, and the same volume of concentrated hydrochloric acid added. […]
Peak areas and response ratios were calculated using Xcalibur Quan browser with Amprolium set as internal standard. […]

[6] = target: ADAM-17 (TACE) (Homo sapiens (Human), UniProt P78536); assay: ADAM-17 (TACE) inhibitor screening assay; assay type: biochemical; settings: read-out: Selectivity IC50 TACE
Method: The ADAM-17 (TACE) Inhibitor Screening Assay Kit was purchased from Sigma-Aldrich. The assay was performed according to the guidelines of the manufacturer using ilomastat as a positive control. Fluorescence signals were measured in a CLARIOstar plate reader (BMG Labtech).

MMP1, sequence (P03956 100-469): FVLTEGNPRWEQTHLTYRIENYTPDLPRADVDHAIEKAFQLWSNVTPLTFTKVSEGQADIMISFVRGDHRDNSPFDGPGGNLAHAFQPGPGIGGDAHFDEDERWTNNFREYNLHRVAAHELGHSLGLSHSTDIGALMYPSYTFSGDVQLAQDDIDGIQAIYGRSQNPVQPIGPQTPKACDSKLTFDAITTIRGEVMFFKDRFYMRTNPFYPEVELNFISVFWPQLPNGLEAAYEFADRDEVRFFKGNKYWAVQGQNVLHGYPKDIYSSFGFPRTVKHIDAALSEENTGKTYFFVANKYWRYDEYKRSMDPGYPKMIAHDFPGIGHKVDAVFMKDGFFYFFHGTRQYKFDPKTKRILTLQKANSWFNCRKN
ADAM-17 (TACE), sequence (P78536 whole entry, looked up): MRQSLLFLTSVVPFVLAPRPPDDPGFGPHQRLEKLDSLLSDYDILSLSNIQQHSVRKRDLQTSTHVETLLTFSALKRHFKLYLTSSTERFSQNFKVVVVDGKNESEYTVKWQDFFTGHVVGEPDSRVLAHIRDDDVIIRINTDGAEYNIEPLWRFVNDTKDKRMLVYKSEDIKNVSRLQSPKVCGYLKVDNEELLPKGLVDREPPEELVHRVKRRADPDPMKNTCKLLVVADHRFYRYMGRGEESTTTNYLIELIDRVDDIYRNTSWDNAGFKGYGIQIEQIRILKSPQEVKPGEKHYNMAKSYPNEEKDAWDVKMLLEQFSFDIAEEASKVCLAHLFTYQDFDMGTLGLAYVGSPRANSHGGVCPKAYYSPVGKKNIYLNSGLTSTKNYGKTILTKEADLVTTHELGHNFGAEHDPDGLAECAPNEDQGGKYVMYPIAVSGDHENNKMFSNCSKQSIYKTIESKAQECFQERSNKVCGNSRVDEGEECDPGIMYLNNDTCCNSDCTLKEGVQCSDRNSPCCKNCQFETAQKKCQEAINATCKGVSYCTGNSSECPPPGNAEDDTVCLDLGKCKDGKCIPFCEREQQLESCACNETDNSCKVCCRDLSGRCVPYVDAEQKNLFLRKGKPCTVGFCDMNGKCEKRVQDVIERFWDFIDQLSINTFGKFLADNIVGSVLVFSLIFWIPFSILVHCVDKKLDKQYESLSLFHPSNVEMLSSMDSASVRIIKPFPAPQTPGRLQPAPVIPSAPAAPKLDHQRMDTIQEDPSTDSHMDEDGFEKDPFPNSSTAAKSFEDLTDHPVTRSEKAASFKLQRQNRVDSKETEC
MMP3, sequence (P08254 100-477): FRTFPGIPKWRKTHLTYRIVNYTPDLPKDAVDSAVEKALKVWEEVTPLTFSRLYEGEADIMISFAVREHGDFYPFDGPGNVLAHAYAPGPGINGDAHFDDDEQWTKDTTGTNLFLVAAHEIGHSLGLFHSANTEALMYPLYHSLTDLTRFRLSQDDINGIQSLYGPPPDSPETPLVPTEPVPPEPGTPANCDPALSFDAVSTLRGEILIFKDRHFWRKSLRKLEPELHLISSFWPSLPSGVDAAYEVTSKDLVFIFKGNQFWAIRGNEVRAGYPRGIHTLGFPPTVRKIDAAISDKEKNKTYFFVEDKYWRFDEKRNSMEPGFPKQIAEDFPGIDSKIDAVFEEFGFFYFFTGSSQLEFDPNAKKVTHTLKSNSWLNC
purified LasB, sequence (P14756 198-498): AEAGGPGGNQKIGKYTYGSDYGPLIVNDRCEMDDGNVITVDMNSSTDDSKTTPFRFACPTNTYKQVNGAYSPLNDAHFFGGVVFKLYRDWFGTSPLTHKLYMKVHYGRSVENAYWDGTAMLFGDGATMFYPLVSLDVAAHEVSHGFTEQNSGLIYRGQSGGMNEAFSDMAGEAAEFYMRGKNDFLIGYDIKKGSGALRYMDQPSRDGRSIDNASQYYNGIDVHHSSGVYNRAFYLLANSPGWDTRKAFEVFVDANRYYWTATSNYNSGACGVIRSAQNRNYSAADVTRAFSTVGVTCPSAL
MMP2, sequence (P08253 110-660): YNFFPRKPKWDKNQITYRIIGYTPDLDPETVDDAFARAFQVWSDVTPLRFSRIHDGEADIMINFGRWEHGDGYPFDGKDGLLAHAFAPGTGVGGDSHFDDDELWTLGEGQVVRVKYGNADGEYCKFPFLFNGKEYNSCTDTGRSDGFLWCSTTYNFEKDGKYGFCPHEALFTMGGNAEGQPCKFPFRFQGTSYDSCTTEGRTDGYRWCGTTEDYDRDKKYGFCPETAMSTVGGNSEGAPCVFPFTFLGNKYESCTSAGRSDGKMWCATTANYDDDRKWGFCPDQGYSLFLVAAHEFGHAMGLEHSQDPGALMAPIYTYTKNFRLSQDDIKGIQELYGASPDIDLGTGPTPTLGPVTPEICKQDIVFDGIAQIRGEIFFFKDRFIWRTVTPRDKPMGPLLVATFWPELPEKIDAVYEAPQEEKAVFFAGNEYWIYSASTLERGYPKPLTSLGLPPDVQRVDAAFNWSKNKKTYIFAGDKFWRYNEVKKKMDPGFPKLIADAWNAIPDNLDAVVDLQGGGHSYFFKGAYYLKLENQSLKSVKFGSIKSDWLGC

Q: How did the “Reduction of LasB-related cytotoxicity in A549 cells” value ([1]; 24 h, MTT) turn out when `CC(C)CC(C(=O)NO)C(=O)Nc1ccc(Cn2cc(CNS(=O)(=O)CC(C)C)nn2)cc1` (stereo not shown) [Compound 169, 2-(Hydroxycarbamoyl)-N-[4-[[4-[(isobutylsulfonylamino)methyl]triazol-1-yl]methyl]phenyl]-4-methyl-pentanamide] was run?
A: Its value is “excellent potency”.

Q: What about the “Dose-response of LasB inhibition in A549 cells” value ([1]; from 1.25 μM) of the same compound?
A: The value was “Dose-dependent inhibition of LasB in a low micromolar to nanomolar range”.

Q: What about the pIC50 [2] of the same compound?
A: Its pIC50 is less than 4.00.

Q: What about the pIC50 [3] of the same compound?
A: Its pIC50 is less than 4.00.

Q: And the pIC50 [4]?
A: Its pIC50 is less than 4.00.

Q: And the pIC50 [5]?
A: Its pIC50 is 7.11.

Q: What about the pIC50 [6] of the same compound?
A: Its pIC50 is less than 4.00.
